Test results from publication PMC7613515, “Reading and erasing of the phosphonium analogue of trimethyllysine by epigenetic proteins” (Communications Chemistry, 2022).
“Also recorded” adds a separate entry of the source.

How the values were obtained:
Type in all cases: biochemical
KDM4EJmjC (M1–Q337) [1] = target: T1, KDM4EJmjC (M1–Q337) (Homo sapiens, UniProt B2RXH2); assay: NMR demethylation assay (1H, 31P), KDM4EJmjC; settings: KDM4EJmjC 50 µM
T1 construct: We chose human KDM4EJmjC (M1–Q337); made in house
T1 sequence (B2RXH2 1-337): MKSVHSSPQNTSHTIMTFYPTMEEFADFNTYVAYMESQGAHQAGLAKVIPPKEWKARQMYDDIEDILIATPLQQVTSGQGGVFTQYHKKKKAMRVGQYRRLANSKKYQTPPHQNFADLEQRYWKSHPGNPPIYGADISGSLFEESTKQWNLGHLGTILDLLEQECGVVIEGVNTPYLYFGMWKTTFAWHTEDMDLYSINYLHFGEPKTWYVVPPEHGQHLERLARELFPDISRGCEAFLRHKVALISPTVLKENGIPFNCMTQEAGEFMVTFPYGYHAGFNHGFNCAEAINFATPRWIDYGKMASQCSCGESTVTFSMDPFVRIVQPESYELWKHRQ
Experimental: Incubations of H3_1-15KP9me3 with KDM4EJmjC were performed in Eppendorf tubes (1.5 mL). Conditions used for ^1H and ^31P NMR time-courses: H3_1-15KP9me3 (250 µM) was incubated with KDM4EJmjC (50 µM), sodium ascorbate (1.00 mM), 2OG (500 µM), and Fe(NH4)2(SO4)2 (100 µM) in HEPES-d18 buffer (50 mM, pH 7.5) in D2O ( > 95% ^2H). Reactions (160 µL total volume) were quenched by addition of HCl (1 M, 10 equivalents) after the indicated time. The samples were centrifuged (1 min, 14,500 rpm) and the supernatant transferred to an NMR tube (3 mm, Norell). For characterisation of the products from the incubation of H3_1-15KP9me3 with KDM4EJmjC the following conditions were used: Peptide H3_1-15KP9me3 (500 µM) was incubated with sodium ascorbate (1.00 mM) 2-oxoglutarate (1.00 mM), Fe(NH4)2(SO4)2 (100 µM), and KDM4EJmjC (50.0 µM), in HEPES-d18 buffer (50 mM, pH 7.5) in D2O (>95% ^2H) for 1 hour. Reactions were quenched by addition of HCl (1 M, 10 equivalents), or by heating (95 °C, 10 min). Precipitated proteins were removed by centrifugation (1 min, 14,500 rpm) and the supernatant transferred to an NMR tube (3 mm, Norell). Spectra were measured using a Bruker 600 MHz machine and analysed using MestReNova 14.1 (MestReLabs, Spain; www.mestrelab.com) and Topspin 3.6.1 (Bruker, Germany; www.bruker.com). […]

KDM4EJmjC (M1–Q337) [2] = target: T1, KDM4EJmjC (M1–Q337); assay: LC-MS demethylation assay, KDM4EJmjC; settings: LC-MS time-course, KDM4EJmjC 0.5 µM, peptide 5.0 µM, 22 °C
Experimental: KDM4EJmjC demethylation studies of H3_1-15K9me3 or H3_1-15KP9me3 incubations using LC-MS were conducted as reported[31], using Agilent RapidFire 365 and Agilent QTOF 6530 machines. In brief, samples were aspirated under vacuum (~50 µL), passed through a loop (10 µL, 400 ms) and wash on a SPE cartridge A (C4) using solvent A (1.5 mL·min^−1, 4500 ms). Peptides were eluted using solvent B (1.25 mL·min^−1, 4500 ms) and directed to the MS for measurements. The cartridge was equilibrated for the next sample (1.25 mL·min^−1, 500 ms) and needle was cleaned with an organic wash solution. Between each sample, an alternating inorganic, organic and inorganic washes were performed to avoid any potential carry over on the SPE cartridge from previous sample. Solvent A: formic acid (0.1%) in water; Solvent B: formic acid (0.1%), acetonitrile (85%) in water; Inorganic wash: water; Organic wash: acetonitrile. Demethylation reactions were conducted in a temperature-controlled room (22 °C) and the MS machine Real-time monitoring mode. A solution [Peptide (6.0 µM), sodium L-ascorbate (600 µM), (NH4)2Fe(II)(SO4)2 (60 µM), disodium 2OG salt (120 µM) in buffer] […] (100 µL) was added and samples from the solution were taken every 2–2.5 min and measured. Note that the time was recorded between the addition and the first aspiration of the enzymatic reaction mixture [Peptide and Enzyme solution mixture]. […]

KDM4EJmjC (M1–Q337) [3] = target: T1, KDM4EJmjC (M1–Q337); assay: FDH coupled demethylation assay (formaldehyde release), KDM4EJmjC; settings: KDM4EJmjC 0–10 µM, H3KP9me3 10 µM; n = 3 or 4
Experimental: To test whether formaldehyde is generated by H3KP9me3 demethylation, a formaldehyde dehydrogenase (FDH) coupled assay was employed (Supplementary Fig. 19a)[34],[37]. […]
measurement of the formation of NADH. a FDH enzyme coupled to KDM4E JmjC demethylation assay measuring the levels of […]
(0–50 µM). c Michaelis-Menten analysis. Standard conditions: FDH (1.0 µM), Asc (1.0 mM), Fe(II) (50 µM), 2OG (200 µM) and NAD+ (250 µM). Errors are standard deviations of the mean (n = 2 or 3).
(1 picture or pasted object on this page, not shown here)
Supplementary Fig. 20 FDH activity assay of KDM4E JmjC (0–10 µM) catalysed demethylation of H3K P9me 3 (10 µM) […]
Standard conditions: FDH (1.0 µM), Ascorbate (1.0 mM), Fe(II) (50 µM), 2OG (200 µM) and NAD + (250 µM). Errors are standard deviations of the mean (n = 3 or 4).

Substance: ARTKQTAR(KPme3)STGGKA [H3KP9me3, histone H3 residues 1–15 with trimethylphosphonium lysine analogue at position 9]
- demethylation (KDM4EJmjC (M1–Q337) [1]; 1H and 31P NMR, H3KP9me3 250 or 500 µM, HEPES-d18 pH 7.5 in D2O): the reaction proceeded to give signals corresponding to H3KP9me2 and H3KP9me2O
- demethylation with 2OG turnover to succinate (KDM4EJmjC (M1–Q337) [1]; NMR time-course, H3KP9me3 250 µM): confirmed demethylation and conversion of 2OG to succinate
- demethylation (KDM4EJmjC (M1–Q337) [2]): both are substrates
- formaldehyde release (KDM4EJmjC (M1–Q337) [3]): in an enzyme dependent manner that releases formaldehyde; also recorded: time-dependent increase in formaldehyde
